# From US20090105252A1, “Pyrimidine Derivatives and Their Use in Therapy as well as the Use of Pyrimidine Derivatives in the Manufacture of a Medicament for Prevention and/or Treatment of Alzheimer's Disease” (AstraZeneca AB, priority 2005, published 2009)
# pKi: −log10 of the molar value. Where a name gives a salt, the structure may show the parent alone.
# Biological target: T1, recombinant human GSK3β (Homo sapiens, UniProt P49841)
# T1 construct: purchased Dundee University, UK
# Assay: GSK3β Scintillation Proximity Assay (ATP competition)
# Assay type: biochemical
# Conditions: inhibition constant from ATP competition, 10 inhibitor concentrations in duplicate; ATP 1 μM; Km of ATP 20 μM
# Protocol: Determination of ATP competition in Scintillation Proximity GSK3β Assay.
# GSK3β Scintillation Proximity Assay.
# The competition experiments were carried out in duplicate with 10 different concentrations of the inhibitors in clear-bottom microtiter plates (Wallac, Finland). A biotinylated peptide substrate, Biotin-Ala-Ala-Glu-Glu-Leu-Asp-Ser-Arg-Ala-Gly-Ser(PO3H2)-Pro-Gln-Leu (AstraZeneca, Lund), was added at a final concentration of 1 μM in an assay buffer containing 1 mU recombinant human GSK3β (Dundee University, UK), 12 mM morpholinepropanesulfonic acid (MOPS), pH 7.0, 0.3 mM EDTA, 0.01% β-mercaptorethanol, 0.004% Brij 35 (a […] detergent), 0.5% glycerol and 0.5 μg BSA/25 μl. The reaction was initiated by the addition of 0.04 μCi [γ-^33P]ATP (Amersham, UK) and unlabelled ATP at a final concentration of 1 μM and assay volume of 25 μl. After incubation for 20 minutes at room temperature, each reaction was terminated by the addition of 25 μl stop solution containing 5 mM EDTA, 50 μM ATP, 0.1% Triton X-100 and 0.25 mg streptavidin coated Scintillation Proximity Assay (SPA) beads (Amersham, UK). After 6 hours the radioactivity was determined in a liquid scintillation counter (1450 MicroBeta Trilux, Wallac). The inhibition curves were analysed by non-linear regression using GraphPad Prism, USA. The Km value of ATP for GSK30, used to calculate the inhibition constants (Ki) of the various compounds, was 20 μM.
# T1 sequence (P49841 whole entry): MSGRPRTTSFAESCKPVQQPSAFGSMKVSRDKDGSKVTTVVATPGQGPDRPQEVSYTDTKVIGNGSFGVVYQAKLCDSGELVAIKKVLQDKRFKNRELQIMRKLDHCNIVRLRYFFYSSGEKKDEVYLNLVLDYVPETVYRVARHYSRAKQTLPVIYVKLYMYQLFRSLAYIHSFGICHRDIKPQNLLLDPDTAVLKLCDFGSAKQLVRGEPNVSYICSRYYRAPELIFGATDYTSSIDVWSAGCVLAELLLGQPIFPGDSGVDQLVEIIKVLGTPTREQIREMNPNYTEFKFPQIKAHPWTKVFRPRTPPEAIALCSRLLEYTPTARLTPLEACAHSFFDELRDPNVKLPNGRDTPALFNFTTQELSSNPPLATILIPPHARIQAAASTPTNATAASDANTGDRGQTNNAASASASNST
row,pKi,Structure (SMILES)
1,8.00,"COc1cc(Nc2ncc(F)c(-c3cnc(C)n3C)n2)cc(C(F)(F)F)c1 [Example 1, 4-(1,2-Dimethyl-1H-imidazol-5-yl)-5-fluoro-N-[3-methoxy-5-(trifluoromethyl)phenyl]pyrimidin-2-amine]"
2,7.85,"Cc1ncc(-c2nc(Nc3ccc(C(=O)N4CCN(C)CC4)cc3)ncc2F)n1C1CCCCC1 [Example 17, 4-(1-Cyclohexyl-2-methyl-1H-imidazol-5-yl)-5-fluoro-N-{4-[(4-methylpiperazin-1-yl)carbonyl]phenyl}pyrimidin-2-amine hydrochloride]"
3,6.90,"Cc1ncc(-c2nc(Nc3ccc(CN4CCN(C)CC4)cc3)ncc2F)n1C [Example 29, 4-(1,2-Dimethyl-1H-imidazol-5-yl)-5-fluoro-N-{4-[(4-methylpiperazin-1-yl)methyl]phenyl}pyrimidin-2-amine hydrochloride]"
4,7.66,"Cc1ncc(-c2nc(Nc3cccc(S(C)(=O)=O)c3)ncc2F)n1C1CCOCC1 [Example 22, 5-Fluoro-N-[3-(methylsulfonyl)phenyl]-4-[2-methyl-1-(tetrahydro-2H-pyran-4-yl)-1H-imidazol-5-yl]pyrimidin-2-amine hydrochloride]"
